Data from PMC11857530, “Antioxidant Peptides from Miiuy Croaker Swim Bladders: Ameliorating Effect and Mechanism in NAFLD Cell Model through Regulation of Hypolipidemic and Antioxidant Capacity” (Marine Drugs, 2025).
Where no end group is shown, it is not given here.

What was measured:
[1] = system: OA-induced HepG2 cells; assay: Intracellular ROS level (DCFH-DA), OA-induced NAFLD cell model; format: cell-based, human; conditions: pretreated, compared to model group; concentration not given
Description: The OA-induced NAFLD cell model was established according to previous methods. HepG2 cells in the logarithmic growth phase were seeded into 96-well plates and cultivated in a humidified atmosphere of 5% CO2 at 37 °C for 24 h. OA was dissolved in 10% BSA and added to the DMEM with a final concentration of 80 μM. After this, the cells were cultured for 24 h, and the morphologies of the HepG2 cells were observed and photographed using a microscope. The HepG2 cells in the control wells were cultured for 24 h in DMEM without OA.
The ROS level was determined by the dichlorodihydrofluorescein diacetate (DCFH-DA) staining method. Briefly, HepG2 cells were seeded in 12-well plates and DCFH-DA was diluted to a final concentration of 10 μM at a ratio of 1:1000. Next, after the removal of the cell culture medium, the cells were washed three times with PBS. After this, the HepG2 cells were incubated with 10 μM DCFH-DA for 30 min at 37 °C. After washing with PBS three times again, the fluorescence of the HepG2 cells was monitored at 485 nm excitation (535 nm emission). Finally, images were acquired using a fluorescence microscope to observe the fluorescence intensity of DCFH-DA.

[2] = biological target: T1, pancreatic lipase (PL) (Sus scrofa, UniProt P00591); assay: Pancreatic lipase (PL) inhibitory activity; format: biochemical; conditions: PNPB substrate, 15 min pre-incubation, 20 min, 37 °C; absorbance 405 nm
T1 construct: purchased Solarbio Life Sciences Co., Ltd. (Beijing, China)
T1 sequence (P00591 1-450): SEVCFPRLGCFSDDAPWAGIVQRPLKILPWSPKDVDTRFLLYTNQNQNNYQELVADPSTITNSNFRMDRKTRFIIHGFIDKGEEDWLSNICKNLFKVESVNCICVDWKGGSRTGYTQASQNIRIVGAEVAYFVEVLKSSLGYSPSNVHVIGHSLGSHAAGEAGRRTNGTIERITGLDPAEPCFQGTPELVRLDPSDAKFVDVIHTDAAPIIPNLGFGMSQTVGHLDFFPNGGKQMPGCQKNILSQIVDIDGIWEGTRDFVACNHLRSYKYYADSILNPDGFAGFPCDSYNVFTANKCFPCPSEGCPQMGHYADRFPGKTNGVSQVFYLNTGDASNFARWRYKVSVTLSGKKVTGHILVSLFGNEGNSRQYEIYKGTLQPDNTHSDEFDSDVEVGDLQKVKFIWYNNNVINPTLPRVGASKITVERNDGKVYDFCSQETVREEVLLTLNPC
Description: Sodium taurocholate, pancreatic lipase, cholesterol esterase, and Tris buffer solution were purchased from Solarbio Life Sciences Co., Ltd. (Beijing, China). […] P-nitrophenyl butyrate (PNPB) was purchased from Shanghai Macleans Biochemical Co., Ltd. (Shanghai, China).
The in vitro pancreatic lipase (PL) inhibitory activity was measured using the method of Cai et al. [78], with slight modifications. Pancreatic lipase was first dissolved in 100 mM Tris buffer (2 mg/mL) and the supernatant was obtained by centrifugation. Tris buffer was then prepared as 0.1% (w/v) PNPB solution. The 50 μL peptide sample was incubated with 50 μL Tris buffer solution and 50 μL pancreatic lipase solution at 37 °C for 15 min, and then 100 μL PNPB solution was added. After 20 min at 37 °C, the absorbance value was measured at 405 nm. In the blank group, pure water was used instead of a sample. In the blank control group, the samples were replaced with pure water and the pancreatic lipase solution was replaced with a buffer solution. […] The pancreatic lipase (PL) inhibitory rate was calculated using the following formula:PL inhibitory rate (%) = [1 − (A − A0)/(B − B0)] × 100%(2) where A, A0, B, and B0 are the absorbance values determined at 405 nm of the sample, the sample control, the blank, and the blank control after the reaction, respectively.

[3] = system: PPARα pathway; conditions: activating PPARα pathway; ref [26],[27]; cited from earlier work
Source text: (§1) Bioactive peptides (BPs) have been produced from diverse plant and animal proteins, such as mammals, poultry, beans, mollusks, fish, Antarctic krill, algae, etc. Beyond their important nutritional benefits, BPs show remarkable bioactivity and pharmacological functions, with numerous potential applications for human health. […] For example, GINY and DQW from α-lactalbum ...

[4] = system: AMP-activated protein kinase (AMPK) pathway; conditions: via AMPK pathway; ref [58],[61]; cited from earlier work
Source text: (§2) Modern unhealthy lifestyles, especially a HFD and lack of exercise, lead to the large accumulation of lipids in the human body, and the excess FFAs overloaded in the body are transferred from the bloodstream to the liver. If the rate of lipid oxidation is far slower than the synthesis rate, the large amounts of lipids accumulated in the liver will result in lipid metabolism disorder, steatosis, and ultimately the development of NAFLD [4, 58].

[5] = system: LXRα/SREBPs/HMGR pathway; conditions: via LXRα/SREBPs/HMGR pathway; ref [59],[60]; cited from earlier work
Source text: as §2

[6] = system: liver dysfunction caused by hyperglycemia; conditions: ref [29]; cited from earlier work
Source text: as §1

[7] = system: FFA-damaged HepG2 cells; conditions: regulating PERK/eIF2α and PERK/IκBα pathways; ref [28]; cited from earlier work
Source text: as §1

[8] = system: HepG2 cells; assay: MTT viability of HepG2 cells; format: cell-based, human; conditions: 100 μM, 24 h
Description: HepG2 human hepatoma cell line was purchased from Shanghai Cell Bank, Chinese Academy of Sciences. HepG2 cells were cultured in DMEM containing […] streptomycin, 50 U/mL penicillin, 2 mM glutamine, and 10% FCS in a humidified atmosphere of 5% CO2 at 37 °C.
The viability of the HepG2 cells was evaluated using the MTT assay via a previous method. In brief, S7 and S10 were dissolved in growth medium to form a peptide solution with a concentration of 200 μM. Then, the peptide solution was added to the growth medium of HepG2 cells with final concentrations of 10, 50, and 100 μM, and the cells were incubated for 24 h with peptide administration. The control group was treated with the growth medium without peptides. SV (1.0 mM) was used as a positive control.

For `CC(=O)N[C@@H](CS)C(=O)O` [NAC], the “ROS fluorescence intensity” value [1] was “showed varying degrees of decrease compared to the model group”.

FSGLR [S7] gave an IC50 [2] of 1670 µM.

GIEWA [S10] showed an IC50 [2] of 1290 µM.

In the case of GINY [peptide from α-lactalbumin], the “Alleviation of NAFLD” value [3] is given as “decrease lipid deposition and oxidative stress”.

In the case of “IRWWW [antioxidant peptide from Miichthys miiuy muscle]”, the “TG and TC content” value [4] is given as “decrease the content of TG and TC”.

In the case of “VFVRN [derived from chickpea protein hydrolysate]”, the “Hypolipidemic activity” value [5] is listed as “strong hypolipidemic activity”.

In the case of VHVV [A tetrapeptide (VHVV) from soy], the “Effect on liver dysfunction” value [6] is listed as “strong preventive effect on liver dysfunction caused by hyperglycemia”.

For “VIAPW [antioxidant peptide from Miichthys miiuy muscle]”, the “TG and TC content” value [4] is given as “decrease the content of TG and TC”.

In the case of “VLATSGPG [VLATSGPG (VLA), peptide from salmon skins]”, the “Lipid content and inflammation” value [7] is given as “decrease the lipid content and inflammation”.

With “VPDDD [S9, antioxidant peptide separated from swim bladder hydrolysate of the miiuy croaker]” the “Viability of HepG2 cells vs control” value [8] was “remarkably lower than that of the control (p < 0.05)”.
